The target in this test is T1, soybean lipoxygenase (lipoxygenase type I-B) (Glycine max, UniProt P08170).
T1 construct: gene LOX1.1
T1 sequence (P08170 1-839): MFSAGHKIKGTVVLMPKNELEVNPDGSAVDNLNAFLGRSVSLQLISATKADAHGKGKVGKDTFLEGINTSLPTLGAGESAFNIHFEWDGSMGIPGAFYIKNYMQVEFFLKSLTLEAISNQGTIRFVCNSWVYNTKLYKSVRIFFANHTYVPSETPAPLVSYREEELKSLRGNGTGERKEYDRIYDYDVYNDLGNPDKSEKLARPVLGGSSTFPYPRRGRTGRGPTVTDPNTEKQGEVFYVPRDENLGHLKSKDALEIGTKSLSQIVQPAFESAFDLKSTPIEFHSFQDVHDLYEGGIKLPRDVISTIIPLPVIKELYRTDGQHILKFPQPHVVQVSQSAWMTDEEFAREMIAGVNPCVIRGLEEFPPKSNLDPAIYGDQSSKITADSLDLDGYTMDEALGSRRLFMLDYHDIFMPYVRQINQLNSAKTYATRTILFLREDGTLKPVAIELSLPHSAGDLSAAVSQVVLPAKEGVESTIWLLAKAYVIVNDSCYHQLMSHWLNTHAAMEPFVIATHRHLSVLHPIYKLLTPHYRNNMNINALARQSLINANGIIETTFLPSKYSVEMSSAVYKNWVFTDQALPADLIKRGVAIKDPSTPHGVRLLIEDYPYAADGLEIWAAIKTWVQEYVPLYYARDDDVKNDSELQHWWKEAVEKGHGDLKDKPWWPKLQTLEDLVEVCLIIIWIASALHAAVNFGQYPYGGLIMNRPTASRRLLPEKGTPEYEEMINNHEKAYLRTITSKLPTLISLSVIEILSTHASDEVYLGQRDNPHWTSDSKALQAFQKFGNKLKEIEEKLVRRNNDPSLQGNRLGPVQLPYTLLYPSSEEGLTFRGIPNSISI
Kind of test: linoleate oxidation at […] nm, % inhibition at […] μΜ. The class given is biochemical. The note with it: read-out: % Inhibition (LOX).

The structures appear in SMILES notation.

As a reminder, the inhibition is the drop in the measured response relative to a control, in per cent. On to `CCOC(=O)C1CCCN(C(=O)c2cc(C(C)(C)C)c(O)c(C(C)(C)C)c2)C1` (centres unmarked) [compound 1, Ethyl 1-(3,5-di-tert-butyl-4-hydroxybenzoyl)piperidine-3-carboxylate], for which the inhibition at 100 µM was determined as 31%.
The same measure for `CCOC(=O)C1CCCN(C(=O)/C=C/c2cc(C(C)(C)C)c(O)c(C(C)(C)C)c2)C1` (centres unmarked) [compound 2, (E)-Ethyl 1-(3-(3,5-di-tert-butyl-4-hydroxyphenyl)acryloyl)piperidine-3-carboxylate]: 33%.

Source of the values: publication PMC9609801, “Nipecotic Acid Derivatives as Potent Agents against Neurodegeneration: A Preliminary Study” (Molecules, 2022).
